Broadly, the Kd is a measure of binding affinity in units of concentration. Read a high Kd as a looser complex.

The text below walks through data of paper PMC7996900 (Microorganisms, 2021).

Structures are written as SMILES.

For this assay, the target named is SUMOHis6-GdpX6^GGDEF (GdpX6, PXO_02019) (Xanthomonas oryzae, UniProt A0A0K0GND9). Kind of assay: biochemical.
SUMOHis6-GdpX6^GGDEF (GdpX6, PXO_02019), sequence (A0A0K0GND9 318-494 limits assumed): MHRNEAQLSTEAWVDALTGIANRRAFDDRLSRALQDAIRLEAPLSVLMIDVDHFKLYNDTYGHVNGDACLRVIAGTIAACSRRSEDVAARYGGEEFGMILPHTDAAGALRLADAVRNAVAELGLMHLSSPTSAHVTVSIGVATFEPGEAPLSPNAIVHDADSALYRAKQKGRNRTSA

For the compound `Nc1nc2c(ncn2[C@@H]2O[C@@H]3CO[P@](=O)(O)O[C@H]4[C@@H](O)[C@H](n5cnc6c(=O)[nH]c(N)nc65)O[C@@H]4CO[P@](=O)(O)O[C@H]3[C@H]2O)c(=O)[nH]1` [c-di-GMP], the dissociation constant Kd amounted to 9 ± 2.98 µM.
